pEC50: −log10 of the molar value.

The experiment deals with Daudi cell line (AID positive). The experiment in a line: Primary screening cell killing assay, Daudi cell line (AID positive). The format is cell-based. The note with it: Homo sapiens, 168 h, cell death on Day 7, Cell-Titer Glo. On the procedure:
Primary screening was a phenotypic screen that utilized the synthetic lethal interaction between AID and RAD51 to identify compounds that were both potent and on target. AID expressing cells are dependent upon RAD51 for survival; inhibiting RAD51 in AID positive cells results in a cytotoxic effect.
The first step was to set up a cell killing assay in the Daudi cell line (AID positive). A 96 well u-bottom plate was prepared by writing the experiment number, plate number, date and initials in the top right corner of the plate lid. With a sterile 300 ml reservoir, and 25 ml serological pipette, evaporation buffer media was pipetted into reservoir in 25 ml increments. Using the liquid handler, 150 ul of evaporation buffer media was pipetted from reservoir into rows A and H, and Columns 1 and 12 of the 96 well u-bottom plate. Cell cultures were counted to obtain the density of cells per ml, and the culture viability. The cell density information was used to obtain 1,000,000 cells from culture using a 5 mL serological pipette into an epi tube. The cell density information from the culture was used to calculate the number of cells and volume of media needed for the assay to seed 1250 cells in 130 ul of media per available culture well in the 96 well u-bottom plate. Rows B through F were used for cells (50 wells in total), with row G left for an empty media control. The calculation was overestimated by 10 mL to account for the dead volume in the 300 ml reservoir. Once the media volume was calculated, the appropriate volume of media was pipetted in 25 mL increments into the 250 mL bottle using a 25 mL serological pipette. The 250 ml bottle was capped tightly, and placed into a 37° C. water bath for 2 minutes. While the culture media was warming, 10 mL of fresh media was pipetted from the 500 mL culture media bottle into a sterile 25 mL reservoir. Using the Eppendorf multichannel pipette, 130 ul of media was pipetted from the 25 mL reservoir into row G of the 96 well u-bottom plate. Once the 250 mL bottle of media was warmed, the volume of culture needed was pipetted into the bottle, and mixed gently with a 25 mL serological pipette as to not create bubbles, and then the contents of the bottle were pipetted into a new 300 mL reservoir. Using the liquid handler, 130 ul of culture was pipetted from the 300 mL reservoir into rows B through F of the 96 well u-bottom plate. Once the culture was added, the plate was placed into a 37° C. incubator until the compound master plate was prepared for use.
Two 96 well u-bottom plates were prepared by writing the master plate name in the upper right corner of the plate lid. Labeling one DMSO master and the other Media Master. The compounds of interest were obtained from the laboratory freezer, and placed into a 25 well storage box with a lid, and set the box aside. The compounds were vortexed after thawing but before use. Using an automatic multichannel pipette, 20 ul of 100% DMSO was pipetted into wells B3-B11 through G3-G11 of the DMSO master plate. For each compound on the master plate, 50 ul of the compound were pipetted in the appropriate well of row 2 (reference plate map to determine appropriate well). A serial dilution was prepared beginning by aspirating 20 ul from row 2 and mixing with row 3, repeating until row 11 was reached. Using the liquid handler, 194 ul of Daudi media was dispensed into wells B2-B11 through G2-G11 of the Media master plate. Using the liquid handler, 6 ul from the DMSO master plate was aspirated and dispensed into the media master plate, mixing 100 ul twice.
Compounds from master plate were then added to the culture plate. The culture plates were removed from the incubator, and set inside the biosafety cabinet. Using a liquid handler, 20 ul from wells B2 to B11 through G2 to G11 of master plate were aspirated, and dispensed into wells B2 to B11 through G2 to G11 of culture plate. This set was continued with each culture plate. […]
Broadly, the pEC50 is the EC50 on a negative log10 scale, so that one unit is a factor of ten. Read a high pEC50 as a small EC50. For the compound `CC(C)OC(=O)Nc1ccc(-c2cnc(N3CCC(NC(=O)OC(C)C)CC3)s2)c(S(=O)(=O)NC(C)(C)C)c1` [Ex. 69, isopropyl N-[1-[5-[2-(tert-butylsulfamoyl)-4-(isopropoxycarbonylamino)phenyl]thiazol-2-yl]-4-piperidyl]carbamate], the negative-log EC50 (pEC50) is less than 6.00.

Turning to `CC(C)OC(=O)Nc1ccc(-c2cnc([C@H]3CC[C@@H](NC(=O)OC(C)C)CC3)s2)c(S(=O)(=O)NC(C)(C)C)c1` [Ex. 67B, cis-isopropyl N-[3-(tert-butylsulfamoyl)-4-[2-[4-(isopropoxycarbonylamino)cyclohexyl]thiazol-5-yl]phenyl]carbamate], the negative logarithm of the EC50 (pEC50) was less than 6.00. As for `CC(C)OC(=O)Nc1ccc(-c2cnc(C3CCC(NC(=O)OC[C@H]4CCCN4C)CC3)s2)c(S(=O)(=O)NC(C)(C)C)c1` (stereo partly drawn) [Ex. 8, [(2R)-1-methylpyrrolidin-2-yl]methyl N-[4-[5-[2-(tert-butylsulfamoyl)-4-(isopropoxycarbonylamino)phenyl]thiazol-2-yl]cyclohexyl]carbamate], the figure is less than 6.00. As for `CC(C)OC(=O)N[C@H]1CC[C@H](c2ncc(-c3ccc(NC(=O)NCc4ccc(F)cc4)cc3S(=O)(=O)NC(C)(C)C)s2)CC1` [Ex. 23, isopropyl ((1r,4r)-4-(5-(2-(N-(tert-butyl)sulfamoyl)-4-(3-(4-fluorobenzyl)ureido)phenyl)thiazol-2-yl)cyclohexyl)carbamate], the pEC50 is no less than 7.00.

`CC(C)OC(=O)NC1CCC(c2ncc(-c3ccc(NC(=O)OC[C@@H]4CCCN4)cc3S(=O)(=O)NC(C)(C)C)s2)CC1` (stereo partly drawn) [Ex. 37, isopropyl ((1S,4r)-4-(5-(2-(N-(tert-butyl)sulfamoyl)-4-(((((S)-pyrrolidin-2-yl)methoxy)carbonyl)amino)phenyl)thiazol-2-yl)cyclohexyl)carbamate] gave a negative-log EC50 (pEC50) of 6.00 to 7.00. As for `CC(C)OC(=O)NC1CCN(c2ncc(-c3ccc(NC(=O)NCc4ccccc4)cc3S(=O)(=O)NC(C)(C)C)s2)CC1` [Ex. 68, isopropyl N-[1-[5-[4-(benzylcarbamoylamino)-2-(tert-butylsulfamoyl)phenyl]thiazol-2-yl]-4-piperidyl]carbamate], the figure is 6.00 to 7.00. For `CC(C)OC(=O)N[C@H]1CC[C@H](c2ncc(-c3ccc(NC(=O)NCc4ccncc4)cc3S(=O)(=O)NC(C)(C)C)s2)CC1` [Ex. 22, trans-isopropyl N-[4-[5-[2-(tert-butylsulfamoyl)-4-(4-pyridylmethylcarbamoylamino)phenyl]thiazol-2-yl]cyclohexyl]carbamate], the negative logarithm of the EC50 (pEC50) was 6.00 to 7.00.

In the case of `CN1CCC[C@H]1COC(=O)N[C@H]1CC[C@H](c2ncc(-c3ccc(NC(=O)NCc4ccccc4)cc3S(=O)(=O)NC(C)(C)C)s2)CC1` [Ex. 12, ((S)-1-methylpyrrolidin-2-yl)methyl ((1r,4S)-4-(5-(4-(3-benzylureido)-2-(N-(tert-butyl)sulfamoyl)phenyl)thiazol-2-yl)cyclohexyl)carbamate], the negative logarithm of the EC50 (pEC50) is 6.00 to 7.00. `CN1CCC[C@@H]1COC(=O)Nc1ccc(-c2cnc(N3CCC(OC(=O)NCc4ccccc4)CC3)s2)c(S(=O)(=O)NC(C)(C)C)c1` [Ex. 2, [1-[5-[2-(tert-butylsulfamoyl)-4-[[(2R)-1-methylpyrrolidin-2-yl]methoxycarbonylamino]phenyl]thiazol-2-yl]-4-piperidyl] N-benzylcarbamate] gave a pEC50 of less than 6.00. The compound `CC(C)OC(=O)N1CCN(c2ncc(-c3ccc(NC(=O)OCc4ccccc4)cc3S(=O)(=O)NC(C)(C)C)s2)CC1` [Ex. 6, isopropyl 4-[5-[4-(benzyloxycarbonylamino)-2-(tert-butylsulfamoyl)phenyl]thiazol-2-yl]piperazine-1-carboxylate] gave a pEC50 of less than 6.00. As for `CC(C)OC(=O)Nc1ccc(-c2cnc(C3CCC(NC(=O)OC[C@@H]4CCCN4C)CC3)s2)c(S(=O)(=O)NC(C)(C)C)c1` (stereo partly drawn) [Ex. 9, isopropyl (3-(N-(tert-butyl)sulfamoyl)-4-(2-((1S,4r)-4-(((((S)-1-methylpyrrolidin-2-yl)methoxy)carbonyl)amino)cyclohexyl)thiazol-5-yl)phenyl)carbamate], the figure is 6.00 to 7.00; as for `CC(C)OC(=O)NC1CCC(c2ncc(-c3ccc(NC(=O)OC[C@H]4CCCN4)cc3S(=O)(=O)NC(C)(C)C)s2)CC1` (stereo partly drawn) [Ex. 36, isopropyl ((1R,4r)-4-(5-(2-(N-(tert-butyl)sulfamoyl)-4-(((((R)-pyrrolidin-2-yl)methoxy)carbonyl)amino)phenyl)thiazol-2-yl)cyclohexyl)carbamate], 6.00 to 7.00; as for `CN1CCC[C@H]1COC(=O)Nc1ccc(-c2cnc(N3CCC(OC(=O)NCc4ccccc4)CC3)s2)c(S(=O)(=O)NC(C)(C)C)c1` [Ex. 1, (S)-(1-methylpyrrolidin-2-yl)methyl (4-(2-(4-((benzylcarbamoyl)oxy)piperidin-1-yl)thiazol-5-yl)-3-(N-(tert-butyl)sulfamoyl)phenyl)carbamate], less than 6.00.

`CN1CCC[C@@H]1COC(=O)NC1CCC(c2ncc(-c3ccc(NC(=O)NCc4ccccc4)cc3S(=O)(=O)NC(C)(C)C)s2)CC1` (stereo partly drawn) [Ex. 11, [(2R)-1-methylpyrrolidin-2-yl]methyl N-[4-[5-[4-(benzylcarbamoylamino)-2-(tert-butylsulfamoyl)phenyl]thiazol-2-yl]cyclohexyl]carbamate] had a pEC50 of 6.00 to 7.00. `CC(C)OC(=O)N[C@H]1CC[C@@H](c2ncc(-c3ccc(NC(=O)NCc4ccccc4)cc3S(=O)(=O)NC(C)(C)C)s2)CC1` [Ex. 66B, cis-isopropyl N-[4-[5-[4-(benzylcarbamoylamino)-2-(tert-butylsulfamoyl)phenyl]thiazol-2-yl]cyclohexyl]carbamate] showed a pEC50 of 6.00 to 7.00. Then `CC(C)OC(=O)N[C@H]1CC[C@H](c2ncc(-c3ccc(NC(=O)NCc4cccnc4)cc3S(=O)(=O)NC(C)(C)C)s2)CC1` [Ex. 25, isopropyl ((1r,4r)-4-(5-(2-(N-(tert-butyl)sulfamoyl)-4-(3-(pyridin-3-ylmethyl)ureido)phenyl)thiazol-2-yl)cyclohexyl)carbamate], with no less than 7.00; and `CC(C)OC(=O)N[C@H]1CC[C@H](c2ncc(-c3ccc(NC(=O)OCC4CCNCC4)cc3S(=O)(=O)NC(C)(C)C)s2)CC1` [Ex. 33, trans-4-piperidylmethyl N-[3-(tert-butylsulfamoyl)-4-[2-[4-(isopropoxycarbonylamino)cyclohexyl]thiazol-5-yl]phenyl]carbamate], with less than 6.00. As for `COc1cc(NC(=O)OC(C)C)cnc1-c1ncc(-c2ccc(NC(=O)OCC3CCNCC3)cc2S(=O)(=O)NC(C)(C)C)s1` [Ex. 56, 4-piperidylmethyl N-[3-(tert-butylsulfamoyl)-4-[2-[5-(isopropoxycarbonylamino)-3-methoxy-2-pyridyl]thiazol-5-yl]phenyl]carbamate], the figure is 6.00 to 7.00.

These data come from US10336746B1, “RAD51 inhibitors” (Cyteir Therapeutics, Inc., priority 2017, dated 2019).
